Entries after “also recorded” stand apart in the source; their conditions may differ.
What was measured:
recombinant CK2 = target: T1, recombinant CK2 (Homo sapiens, UniProt P68400); assay: In vitro CK2 kinase assay with recombinant WNV C as substrate; type: biochemical; conditions: 32P-ATP or 32P-GTP as donor; autoradiography
T1 construct: purchased Biomol Research Laboratories (Plymouth Meeting, Pa.)
Method: In vitro protein kinase assays. In vitro phosphorylation assays were routinely done with the recombinant Cp proteins with the recombinant CK2 (Biomol, Pa.) in a 20 μl-reaction volume. Reaction mixtures (20 μL) contained 25 mM Hepes, pH 7.4, 2 mM MnCl2 or 5 mM MgCl2, 1.6 μCi of -^32P-GTP or […] (Amersham Pharmacia Biotech), and 0.5 to 1 μg of purified His-tagged WNV Cp as a substrate. Histone 1B (Calbiochem) protein was used as positive control. The phosphorylation reaction was started by the addition of ^32P-ATP or ^32P-GTP and the reaction was carried out for 30 min at 30 C. The kinase assays were arrested by the addition of 20 μl of SDS-sample buffer and the reaction mixtures were boiled for five minutes. Phosphorylated proteins were separated in SDS PAGE and proteins ere visualized by autoradiography.
Purified rC fractions from E. coli cells (M15[pREP4+pQE-WNV C]) were subjected to subsequent kinase assays. Using purified CK2 enzyme, in vitro assay was performed with ^32P-ATP as a phosphate donor to examine possible role of CK2 in the phosphorylation of WNV C. […] CK2 is unique among protein kinases in its ability to use both ATP and GTP as phosphoryl group donors. Another biochemical property of CK2 that makes it different from other kinases is its high sensitivity to inhibition by heparin.

[1] = test system: CK2-mediated phosphorylation of WNV C in Vero cells; assay: In vivo 32P labeling and immunoprecipitation of WNV C from transfected cells under DRB; type: cell-based, African green monkey; conditions: cells transfected with pcWNV C-His; DRB 100, 500 and 1000 μM; anti-His immunoprecipitation
Method: In vivo ^32P-Orthophosphate labeling and WNV C immunoprecipitation. In order to check whether Cp is phosphorylated in vivo also, Capsid-transfected cells were pulse-chased with […] and their lysates were analyzed for the detection of phosphorylated capsid proteins by Immunoprecipitation. HeLa cells were grown in DMEM medium supplemented with 10% FBS until they were subconfluent. The cells were transfected with WNV Cp constructs and DOTAP/DNA containing media were replaced after about 6-hours with media with/without […]. DBS was added to a final concentration of 0.1, 0.5 and 1.0 mM. The Control cells were treated with DMSO alone. Phospholabeling and immunoprecipitation of WNV CP were performed as described previously. […] WNV CP was precipitated with anti-His monoclonal antibody (Scil Diagnostics, Martinsried, Germany). […] The immunoprecipitated capsid proteins were eluted from the protein G-agarose by boiling them for 5 min and analyzed by SDS-PAGE, followed by autoradiography.
Subsequent to the identification and characterization of CK2-mediated phosphorylation of the rC in vitro, we wanted to study this phenomenon in vivo. […] The lysates from the matching controls that were not exposed to radioactivity, were analyzed separately for capsid expression. […]

capsid-containing VLPs = assay: ELISA of capsid from culture fluid (secretion of capsid-containing VLPs); type: cell-based; conditions: DRB added to culture medium; anti-C ELISA
Source text: Quantification of the protein C in ELISA from the supernatants of transfected cells. The ability of unprocessed and truncated capsid proteins to participate in the budding was assed by ELISA from culture fluid of transfected cells. In 6 cm plates, the cells were transfected with full-length capsid (123 aa) or truncated capsid (105 aa) or C(S36A) plasmids or in combination with WNV M and E-expressing constructs. Forty eight hours post-transfection, the supernatants were collected and analyzed for viral budding. One hundred microliters of supernatants were plated in triplicate, in a serial dilution series (dilutions in carbonate bicarbonate buffer) on a high protein binding EIA/RIA 96 well plate (Costar) and incubated at 4° C. overnight. In addition to the supernatants from experimental samples, a mock-transfected and untransfected media control is also added to the assay samples. Moreover, a series of wells are used as negative controls for the assay in that no supernatant is added to these wells only carbonate bicarbonate buffer. After 3 washes with PBS, nonspecific binding sites are blocked with 3% BSA in PBS solution, for 2 hours at room temperature. […] The reaction is terminated by adding 4N H2SO4 and protein levels are measured using an ELISA reader (Molecular Diagnostics) at 450 nm. […]

WNV [2] = assay: WNV release from infected 293 cells, ELISA with anti-E antibody; type: cell-based, West Nile virus; conditions: 4 MOI, 48 h post infection
Source text: FIG. 6 includes panels A and B. Both reduced CK2 activity and depletion of CK2 transcripts affects viral release. FIG. 6 panel A: Depletion of CK2 transcripts reduced viral replication. As described earlier, the cells were transfected with full-length infectious clone along with siRNA-CK2α and siRNA-CK2β molecules. Lane 1 depicts the amount of viral release from the plates that were not treated with any of siRNA molecules. […] FIG. 6 panel B: Effect of cell-permeable CK2-inhibitor on viral release. 293 cells were infected with infectious WNV samples, propagated from an infectious clone of WNV.
In the context of whole virus, we examined whether inhibition of cellular CK2 affects WN viral release. We generated high titer of viral sample from Vero cells transfected with full length infectious clone (Pierson et al 2005). We harvested culture fluid at regular intervals, determined viral titre by routine Plaque assays and used them for infection assays. […] Forty-eight hours post infection, viral release was monitored by both plaque assays as well as ELISAs measuring the presence of […] using monoclonal anti E antibody. FIG. 6B depicts the release of viral molecules from WNV-infected cells as measured by ELISA using anti-E antibody. […] While the inhibition of cellular CK2 activity results in the reduced viral load, it is presumable that depletion of CK2 transcripts also could cause similar effect. In order to test this, in the second approach, WNV release was evaluated under the conditions where expression of CK2 subunits was knocked out. Cellular CK2 was knocked out by using siRNA molecules that specifically target CK2α and CK2β transcripts. siRNA-CK2α and siRNA-CK2β molecules were used to deplete cellular transcripts of CK2. 293 cells were infected with infectious WNV followed by the treatment with either siRNA control molecules or siRNA-CK2α or siRNA-CK2β molecules. Release of WNV was monitored from these plates. […] We also observed severe impairment of capsid phosphorylation in the pulse-chase studies under the influence of siRNA molecules.

WNV [3] = assay: WNV titers by plaque assay on Vero cells; type: cell-based, West Nile virus; conditions: DRB at different doses (FIG. 7B)
Method: The inhibited level of viral release indicates the siRNA-CK2 mediated effects are statistically significant.
Virus titration by plaque assay. Virus production was titered by plaque assays using Vero cells. For routine analysis, cells were seeded in 6-well (6×10^5 cells/well) or 12-well (3×10^5 cells/well) plates in -MEM with 10% FBS for 3 h at 37° C. Medium was removed, serial dilutions of virus supernatants in -MEM with 2% FBS were added (0.30 ml/well for 6-well plates and 0.15 ml/well for 12-well plates), and the cells were incubated for 2 h at 37° C. […] Virus concentrations are determined as PFU per milliliter.
In the context of whole virus, we examined whether inhibition of cellular CK2 affects WN viral release. […] We harvested culture fluid at regular intervals, determined viral titre by routine Plaque assays and used them for infection assays. […] Forty-eight hours post infection, viral release was monitored by both plaque assays as well as ELISAs measuring the presence of […] using monoclonal anti E antibody. FIG. 6B depicts the release of viral molecules from WNV-infected cells as measured by ELISA using anti-E antibody. […] In order to test this, in the second approach, WNV release was evaluated under the conditions where expression of CK2 subunits was knocked out. […] Release of WNV was monitored from these plates. […]

T1 sequence (P68400 whole entry): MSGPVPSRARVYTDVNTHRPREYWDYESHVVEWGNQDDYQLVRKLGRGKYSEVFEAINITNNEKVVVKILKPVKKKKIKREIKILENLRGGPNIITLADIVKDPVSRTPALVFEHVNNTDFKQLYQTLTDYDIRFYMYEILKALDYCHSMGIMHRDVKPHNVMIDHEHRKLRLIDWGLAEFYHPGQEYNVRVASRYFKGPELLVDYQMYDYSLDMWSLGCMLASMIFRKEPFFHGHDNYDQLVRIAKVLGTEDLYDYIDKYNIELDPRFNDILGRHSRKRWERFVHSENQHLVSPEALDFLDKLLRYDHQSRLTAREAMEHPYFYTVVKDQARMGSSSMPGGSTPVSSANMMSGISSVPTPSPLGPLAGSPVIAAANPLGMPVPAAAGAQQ
T1 sequence (P67870 whole entry partner): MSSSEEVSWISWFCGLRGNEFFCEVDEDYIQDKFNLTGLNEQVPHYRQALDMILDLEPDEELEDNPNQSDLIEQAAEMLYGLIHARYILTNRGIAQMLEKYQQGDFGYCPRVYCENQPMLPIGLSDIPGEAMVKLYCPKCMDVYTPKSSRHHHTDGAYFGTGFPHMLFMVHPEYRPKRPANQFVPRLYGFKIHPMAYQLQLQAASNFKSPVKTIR

| Compound | heparin concentration at which the ability of CK2 to phosphorylate C was adversely affected (recombinant CK2) | phosphorylation of C by CK2 in vitro (recombinant CK2) | in vivo phosphorylation of WNV C [1] | level of capsid in the culture fluid (capsid-containing VLPs) | viral release (WNV [2]; DRB 5 uM) | viral release (WNV [2]; DRB 10 uM) | viral release (WNV [2]; DRB 50 uM) | WNV replication and release into culture medium by plaque assay (WNV [3]) |
| --- | --- | --- | --- | --- | --- | --- | --- | --- |
| heparin | above 10 uM | severely inhibited; also recorded: severely impaired in a dose dependent manner | – | – | – | – | – | – |
| OC[C@H]1O[C@@H](n2cnc3cc(Cl)c(Cl)cc32)[C@H](O)[C@@H]1O [DRB, 5,6-Dichloro-1-b-D-ribofuranosylbenzimidazole] | – | – | severely inhibited; also recorded: specifically blocks the phosphorylation of capsid; also recorded: adversely inhibited | significantly reduced the level of capsid from the culture fluid | significantly reduces viral release | reduced by almost one fold | completely effective at blocking viral release | dose dependent |

From US20100256217A1, “ANTIVIRAL INHIBITION OF CASEIN KINASE II” (The Trustees of the University of Pennsylvania, priority 2006, published 2010)
